# Experimental data as given in patent publication US11786503B2, “Pharmaceutical compositions and methods for countering chemotherapy induced cardiotoxicity” (Auransa Inc., priority 2016, dated 2023).
# Read-outs that look alike come from different tables or passages of the source.
# Key:
# [1] = tested on: Human iPSC-derived cardiomyocytes; experiment: doxorubicin-induced mitochondrial toxicity, TMRM signal, 2 days (Example 2); type: cell-based; conditions: co-treated with 1.25 μM doxorubicin and 79 μM myricetin, compared to 1.25 μM doxorubicin alone
# Experimental: Following treatment, the samples were incubated with a tetramethylrhodamine methyl ester (TMRM) dye to indicate mitochondrial health, and Hoechst 33342 to identify cell nuclei. Cells were imaged using the INCell Analyzer2200.
# [2] = tested on: Human iPSC-derived cardiomyocytes; experiment: contractility, beat rate by Pulse video, 3 days (Example 3); type: cell-based; conditions: 72 hours; for beat rate: mock-treated 33.33
# [3] = tested on: Cardiomyocytes (human iPSC-derived); experiment: doxorubicin-induced apoptosis, CellEvent dye, 3 days (Example 4); type: cell-based; conditions: Cardiomyocyte, 72 h, co-treated with 1 μM of doxorubicin, read-out: IC50 for protective effects against apoptosis
# Experimental: Cardiomyocytes were prepared as described above. […] Following treatment, the samples were incubated with a CellEvent dye to indicate apoptosis-positive cells, and a second dye to identify cell nuclei.
# [4] = tested on: Human iPSC-derived cardiomyocytes; experiment: cells; type: cell-based; conditions: Cardiomyocyte, 0.5 μM of Doxorubicin, 72 hours, read-out: EC50 for rescue from DOX-induced cell death
# Experimental: To measure the rescue rates from the DOX-induced cell death in cardiomyocytes, the protective effect of myricetin was directly compared with that of dexraxozane (DEX; standard of care). Human iPSC-derived cardiomyocytes were treated with 0.5 μM of Doxorubicin and increasing concentrations of myricetin (MYR, circle) or dexraxozane (DEX, square). […] Cells were imaged using INCell Analyzer2200 (GE). […] (n=3).
# Next, the ability of MYR to confer cardioprotection was directly compared with that of DHM as these two compounds display distinctive property in their structures and TOPOI inhibition activity. […] Human iPSC-derived cardiomyocytes were treated with 0.5 μM of Doxorubicin and increasing concentrations of myricetin (MYR, circle) or dihydromyricetin (DHM, triangle).
# [5] = tested on: Human iPSC-derived cardiomyocytes; experiment: DOX-induced contractility dysfunction, Pulse video, 48 hours (Example 7); type: cell-based
# [6] = tested on: Human iPSC-derived cardiomyocytes; experiment: DOX-induced DNA double strand break, γH2AX immunostaining; type: cell-based; conditions: 48 hours
# [7] = tested on: Human iPSC-derived cardiomyocytes; experiment: DOX-induced sarcomere disruption, Cardiac Troponin T immunostaining (Example 8); type: cell-based; conditions: DOX (0.5 μM) plus MYR (100 μM), 72 hours
# Experimental: DOX-induced cell death is often manifested by severity of structural disruptions of cardiomyocyte organization (e.g., sarcomere). To assess the protective effect of MYR against DOX-induced sarcomere disruption, human iPSC-derived cardiomyocytes were treated with DMSO, DOX (0.5 μM), or DOX plus MYR (100 μM). After 72 hours of treatment, cells were immunostained with antibody against Cardiac Troponin T (Abcam) to show sarcomeric organization in of the heart cells.
# TOPOIIβ mRNA expression = TOPOIIβ mRNA expression in cardiomyocytes; type: cell-based; conditions: for TOPOIIβ mRNA expression: compound alone, DOX at 24 and 48 hours
# TOPOIIα expression = experiment: TOPOIIα mRNA expression in cardiomyocytes; type: cell-based
# [8] = tested on: Doxorubicin treated human iPSC-derived cardiomyocytes; experiment: iPSC-CM protection by myricetin analogs (Table 1); type: cell-based; conditions: for EC50 / Emax: Homo sapiens; for Emax: read-out: iPSC-CM protection Max Effect (%)
# [9] = tested on: Human stem cell derived cardiomyocytes; experiment: sunitinib-induced cell death (Example 14); type: cell-based; conditions: sunitinib (10 μM) plus MYR (1 to 100 μM), 72 hours
# [10] = tested on: sorafenib treated cardiomyocytes; experiment: sorafenib-induced contractile dysfunction (Example 14); type: cell-based, human; conditions: 5 μM sorafenib treated cardiomyocytes
# cardiomyocytes [11] = experiment: bortezomib-induced cardiotoxicity (Example 14); type: cell-based, human; conditions: 100 μM myricetin
# C57BL/16 mice = experiment: acute anthracycline-induced cardiotoxicity model, echocardiography (Example 16); type: in vivo
# Description: An acute anthracycline-induced cardiotoxicity model was established in 9-10 week old C57BL/16 mice obtained from The Jackson Laboratory. […] General health of the animals was monitored on a daily basis throughout the course of the study. […] Left ventricular (LV) M-mode images were obtained in the two-dimensional short axis view close to the papillary muscles. Tracings of endocardial tissue during systole and diastole were made off line.
# [12] = tested on: human induced pluripotent stem cell-derived cardiomyocytes (iPSC-CM)
# TOPOIIα = molecular target: T1, TOPOIIα (Homo sapiens, UniProt P11388); experiment: kDNA decatenation assay, TOPOIIα; type: biochemical;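 note: kDNA incubated with one unit of TOPOIIα at 37 °C for 30 min, decatenated product resolved on 1% agarose gel, inhibition from relative band intensity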
# T1 construct: purchased Inspiralis
# TOPOIIβ = molecular target: T2, TOPOIIβ (Homo sapiens, UniProt Q02880); experiment: kDNA decatenation assay, TOPOIIβ; type: biochemical;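 note: kinetoplast DNA incubated with one unit of TOPOIIβ at 37 °C for 30 min, decatenated product resolved on 1% agarose gel, inhibition scored from relative band intensity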
# T2 construct: purchased Inspiralis
# [13] = tested on: cardiomyocytes differentiated from induced pluripotent stem cells; experiment: doxorubicin-induced mitochondrial toxicity, TMRM-negative cells, 48 hours (Example 17); type: cell-based, human; conditions: 1 μM doxorubicin, KAE 17 μM, AMB 0.76 μM, MES 10 μM, NAC 50 μM, Dex 160 μM, VIT 115 μM
# Experimental: Following treatment, the samples were incubated with a tetramethylrhodamine methyl ester (TMRM) dye to indicate mitochondrial health, and a second dye to identify cell nuclei.
# A549 cells = experiment: doxorubicin-mediated death of lung cancer cells, CellTiter-Glo (Example 22); type: cell-based; conditions: co-treated with increasing concentrations of doxorubicin, 72 hours
# Experimental: A549 cells (lung cancer) were cultured for 1 day before performing experiments. […] XLFit was used for curve fitting.
# [14] = tested on: cardiomyocytes differentiated from induced pluripotent stem cells; experiment: long term toxicity on electrophysiology, active electrodes (Example 24); type: cell-based; conditions: various concentrations, at least 5 days
# Experimental: Samples were either mock-treated with 0.1% DMSO, or treated with various concentrations of the indicated drug. Following treatment, the percentage of active electrodes in each sample was measured for at least 5 days. Percentage of active electrodes was quantified and graphed in a time course.
# MDA-MB-231 cells [15] = conditions: co-treated with increasing concentrations of doxorubicin, 72 hours
# cardiomyocytes [16] = experiment: cytotoxicity of myricetin analogs to cardiomyocytes (Table 1, Toxicity)
# [17] = tested on: cardiomyocytes differentiated from induced pluripotent stem cells; experiment: long-term mitochondrial health, TMRM, 7 days (Example 19); type: cell-based, human
# [18] = tested on: cardiomyocytes differentiated from induced pluripotent stem cells; experiment: electrophysiological activity with doxorubicin, active electrodes (Example 20); type: cell-based, human; conditions: for average number of active electrodes: 30 hours
# Experimental: Samples were either mock-treated with 0.1% DMSO, treated with 1 μM doxorubicin, or co-treated with 1 μM doxorubicin and various concentrations of vitexin (e.g., 11.6 μM, 37 μM, or 116 μM). Following treatment, the percentage of active electrodes in each sample was measured for 72 hours. Percentage of active electrodes was quantified and graphed in a time course (FIG. 28A). The average number of active electrodes per well was quantified and graphed at 30 hours after the treatment (FIG. 28B, n=6, standard deviation is shown as error bars).
# MDA-MB-231 cells [19] = experiment: cells; conditions: Homo sapiens, MDA-MB-231, 72 h, read-out: cell viability LC50 of doxorubicin
# [20] = tested on: cardiomyocytes differentiated from induced pluripotent stem cells; experiment: doxorubicin-induced apoptosis, TUNEL dye, 48 hours (Example 18); type: cell-based, human; conditions: 1 μM doxorubicin, VIT 115 μM, Dex 160 μM, AMB 0.76 μM, NAC 50 μM, KAE 17 μM, MES 10 μM
# Experimental: Following treatment, the samples were incubated with a TUNEL dye to indicate apoptosis-positive cells, and a second dye to identify cell nuclei.
# [21] = tested on: cardiomyocytes differentiated from induced pluripotent stem cells; experiment: acute toxicity on electrophysiology, MEA beat period and field potential duration (Example 23); type: cell-based; conditions: lower drug concentration, at least 20 minutes
# Experimental: Samples were either mock-treated with 0.1% DMSO, or treated with increasing concentrations of the indicated drug for at least 20 minutes. Cardiomyocytes were treated with the hERG potassium channel blocker E4031 as a control. Following treatment, the beat period and field potential duration (FPD) were measured in each sample using the MEA.
# [22] = iPSC-CM, read-out: iPSC-CM protection EC50
# [23] = MYR 40 mg/kg i.p. 30 minutes prior to doxorubicin 20 mg/kg, day 5
# [24] = MYR 40 mg/kg i.p., 2-fold higher than doxorubicin
# [25] = Doxorubicin 20 mg/kg single intraperitoneal injection, day 5 vs baseline
# T2 sequence (Q02880 whole entry): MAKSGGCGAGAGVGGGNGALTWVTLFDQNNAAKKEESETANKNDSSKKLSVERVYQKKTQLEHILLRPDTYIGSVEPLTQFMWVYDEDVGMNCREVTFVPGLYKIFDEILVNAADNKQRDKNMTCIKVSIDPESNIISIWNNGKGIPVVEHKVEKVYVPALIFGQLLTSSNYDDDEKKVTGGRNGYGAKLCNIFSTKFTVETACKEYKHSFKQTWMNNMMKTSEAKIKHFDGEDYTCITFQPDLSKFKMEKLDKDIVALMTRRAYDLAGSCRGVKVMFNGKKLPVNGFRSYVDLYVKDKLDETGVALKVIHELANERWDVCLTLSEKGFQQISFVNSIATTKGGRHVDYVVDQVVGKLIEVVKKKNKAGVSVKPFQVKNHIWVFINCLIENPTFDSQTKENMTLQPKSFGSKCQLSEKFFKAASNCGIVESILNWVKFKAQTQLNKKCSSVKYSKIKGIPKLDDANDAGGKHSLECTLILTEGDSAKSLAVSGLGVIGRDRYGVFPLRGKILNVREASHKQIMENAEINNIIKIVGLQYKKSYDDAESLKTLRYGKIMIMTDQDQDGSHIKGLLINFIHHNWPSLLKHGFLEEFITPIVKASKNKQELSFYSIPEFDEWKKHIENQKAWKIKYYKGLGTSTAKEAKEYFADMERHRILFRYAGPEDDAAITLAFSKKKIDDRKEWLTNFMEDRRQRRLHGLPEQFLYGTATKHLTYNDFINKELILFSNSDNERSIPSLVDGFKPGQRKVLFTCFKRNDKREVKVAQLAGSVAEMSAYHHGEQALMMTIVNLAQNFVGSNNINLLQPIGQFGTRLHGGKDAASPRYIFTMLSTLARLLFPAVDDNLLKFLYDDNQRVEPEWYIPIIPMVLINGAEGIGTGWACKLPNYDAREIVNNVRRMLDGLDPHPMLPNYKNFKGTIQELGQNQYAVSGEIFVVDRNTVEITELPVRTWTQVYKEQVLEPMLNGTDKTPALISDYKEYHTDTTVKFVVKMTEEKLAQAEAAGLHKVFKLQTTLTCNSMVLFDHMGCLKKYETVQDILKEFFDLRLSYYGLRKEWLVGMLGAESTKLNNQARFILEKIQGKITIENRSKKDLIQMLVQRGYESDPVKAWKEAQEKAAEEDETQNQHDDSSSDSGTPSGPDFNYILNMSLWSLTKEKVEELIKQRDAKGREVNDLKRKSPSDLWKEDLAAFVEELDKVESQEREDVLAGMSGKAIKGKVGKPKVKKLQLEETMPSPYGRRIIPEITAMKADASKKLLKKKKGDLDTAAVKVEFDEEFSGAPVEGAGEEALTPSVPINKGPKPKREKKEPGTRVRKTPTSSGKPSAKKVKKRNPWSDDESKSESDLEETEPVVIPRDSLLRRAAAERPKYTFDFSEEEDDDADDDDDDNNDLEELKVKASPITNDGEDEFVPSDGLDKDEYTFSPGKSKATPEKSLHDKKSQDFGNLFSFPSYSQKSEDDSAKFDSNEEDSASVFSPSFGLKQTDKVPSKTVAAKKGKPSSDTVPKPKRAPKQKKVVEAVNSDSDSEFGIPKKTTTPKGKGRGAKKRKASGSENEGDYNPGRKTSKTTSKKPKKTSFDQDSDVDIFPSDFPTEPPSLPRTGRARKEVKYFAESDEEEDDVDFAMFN
# T1 sequence (P11388 whole entry): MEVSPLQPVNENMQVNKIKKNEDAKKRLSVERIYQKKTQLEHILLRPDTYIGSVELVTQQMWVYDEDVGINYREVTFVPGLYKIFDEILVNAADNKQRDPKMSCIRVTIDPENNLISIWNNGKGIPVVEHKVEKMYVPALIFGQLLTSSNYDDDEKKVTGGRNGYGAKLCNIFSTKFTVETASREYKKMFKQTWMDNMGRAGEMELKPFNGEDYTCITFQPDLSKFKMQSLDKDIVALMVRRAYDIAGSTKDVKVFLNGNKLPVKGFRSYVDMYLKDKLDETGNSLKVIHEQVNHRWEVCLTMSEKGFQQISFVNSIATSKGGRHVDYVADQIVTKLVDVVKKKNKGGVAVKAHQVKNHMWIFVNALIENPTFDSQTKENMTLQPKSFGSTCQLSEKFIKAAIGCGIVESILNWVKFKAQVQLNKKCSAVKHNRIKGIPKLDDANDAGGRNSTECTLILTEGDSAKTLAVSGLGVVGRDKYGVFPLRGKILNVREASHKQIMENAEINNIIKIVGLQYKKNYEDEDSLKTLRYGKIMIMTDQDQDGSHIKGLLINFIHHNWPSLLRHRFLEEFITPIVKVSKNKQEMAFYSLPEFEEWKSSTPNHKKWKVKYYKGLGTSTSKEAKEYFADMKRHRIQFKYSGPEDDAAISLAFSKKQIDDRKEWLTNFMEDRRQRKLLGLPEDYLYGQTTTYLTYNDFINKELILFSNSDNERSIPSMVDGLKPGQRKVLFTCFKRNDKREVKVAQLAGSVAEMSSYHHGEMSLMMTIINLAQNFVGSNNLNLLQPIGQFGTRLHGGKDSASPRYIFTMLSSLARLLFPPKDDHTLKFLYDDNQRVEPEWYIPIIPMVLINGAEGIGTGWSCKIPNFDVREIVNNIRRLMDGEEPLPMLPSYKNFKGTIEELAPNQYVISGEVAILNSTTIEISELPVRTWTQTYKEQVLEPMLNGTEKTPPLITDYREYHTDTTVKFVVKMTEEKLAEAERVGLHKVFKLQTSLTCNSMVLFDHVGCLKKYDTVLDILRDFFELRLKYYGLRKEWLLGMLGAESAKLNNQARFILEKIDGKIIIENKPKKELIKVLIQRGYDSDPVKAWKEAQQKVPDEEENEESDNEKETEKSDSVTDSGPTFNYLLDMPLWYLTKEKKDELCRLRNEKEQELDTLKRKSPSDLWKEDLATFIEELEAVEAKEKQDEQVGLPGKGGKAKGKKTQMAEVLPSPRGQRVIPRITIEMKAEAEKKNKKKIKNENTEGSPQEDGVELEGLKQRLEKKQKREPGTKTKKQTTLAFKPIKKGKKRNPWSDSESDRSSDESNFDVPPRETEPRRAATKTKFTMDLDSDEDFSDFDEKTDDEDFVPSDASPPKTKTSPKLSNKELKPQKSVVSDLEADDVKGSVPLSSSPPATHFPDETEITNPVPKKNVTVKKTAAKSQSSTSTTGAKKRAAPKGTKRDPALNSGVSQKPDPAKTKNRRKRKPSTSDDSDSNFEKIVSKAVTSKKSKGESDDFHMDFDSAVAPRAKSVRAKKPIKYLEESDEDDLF
structure (smiles),measurement,setting,value
"O=c1c(O)c(-c2cc(O)c(O)c(O)c2)oc2cc(O)cc(O)c12 [Compound 1, 3,5,7,3′,4′,5′-hexahydroxyflavone]",TMRM signal (mitochondrial health),[1],greater TMRM signal
same,beat rate,[2]; 79 μM myricetin alone,39.33 beats per minute
same,beat rate,[2]; co-treated with 79 μM myricetin and 1.25 μM doxorubicin,37.33 beats per minute
same,IC50,[3],20.5 µM
same,EC50,[4],7.5 µM
same,correction of DOX-induced contractile dysfunction,"[5]; DOX (0.5 μM) plus MYR (100 μM), as compared to DEX (100 μM)",significantly corrected
same,protection against DOX-induced double strand break (γH2AX-positive cells),[6]; DOX (0.5 μM) plus 100 μM agent,significant protection
same,IC50,"[6]; Homo sapiens, Cardiomyocyte, read-out: IC50, concentration at which DOX-induced double strand break was reduced to 50%, 0.5 μM of doxorubicin",5.28 µM
same,protection against DOX-induced sarcomere disruption,[7],significant protection
same,TOPOII expression (TOPOIIβ) in the presence of myricetin,TOPOIIβ mRNA expression; DOX plus myricetin,restored to a level close to normal
same,TOPOIIβ mRNA expression,TOPOIIβ mRNA expression,did not have any effect
same,expression of TOPOIIα,TOPOIIα expression; myricetin in the presence of DOX,further repressed
same,EC50,"[8]; Cardiomyocyte, approximate, read-out: EC50 for cardioprotection",10 to 20 µM
same,EC50,[8]; [22],14.5 µM
same,Emax,[8]; iPSC-CM,78%
same,protection against sunitinib-induced cell death,[9],displayed protection
same,cardiac dysfunction corrected,[10],more than 80%
same,rescue of bortezomib-induced cardiotoxicity,cardiomyocytes [11],rescued
same,improvement of EF,C57BL/16 mice; [23],10%
same,improvement of FS,C57BL/16 mice; [23],7%
same,rescue of EF dysfunction caused by doxorubicin,C57BL/16 mice; [24],49%
same,rescue of FS dysfunction caused by doxorubicin,C57BL/16 mice; [24],52%
same,"difference in the number of total cells, as compared to mock-treated control",[12],no significant difference
same,"reduction the number of total cells, as compared to mock-treated control","[12]; co-treated with myricetin and 1.25 μM doxorubicin, 72 hours",27.57%
"O=c1c(O)c(-c2ccc(O)cc2)oc2cc(O)cc(O)c12 [Compound 7, 3,5,7,4′-tetrahydroxyflavone]",TOPIIα Inhibition,TOPOIIα,−
same,"TOPOIIα inhibition, in words",TOPOIIα; decatenation assay,did not exhibit any inhibitory effect
same,TOPIIβ Inhibition,TOPOIIβ,−
same,"TOPOIIβ inhibition, in words",TOPOIIβ; decatenation assay,did not exhibit any inhibitory effect
same,maximum rescue rate,[8],< 50%
same,EC50,[8]; [22],26 µM
same,Emax,[8]; iPSC-CM,46%
same,"cardioprotection, in words",[8]; Table 1,moderate level of cardioprotection
same,"decrease in mitochondrial toxicity, compared to doxorubicin without protective agent",[13],at least 60%
same,difference in the percentage of cell death vs doxorubicin without protective agent,A549 cells,no significant difference
same,decrease in the number of active electrodes relative to the mock-treated sample,[14],no observable decrease
same,difference in the percentage of cell death vs doxorubicin without protective agent,MDA-MB-231 cells [15],no significant difference
same,Toxicity,cardiomyocytes [16]; * = cytotoxicity at 100 μM,−
same,toxic effects at concentrations less than 100 μM,cardiomyocytes [16]; Table 1,did not show toxic effects
same,"cytotoxicity, in words","cardiomyocytes [16]; at 100 μM where stated, Table 1",without some level of cytotoxicity
"COc1cccc2c1C(=O)c1c(O)c3c(c(O)c1C2=O)C[C@@](O)(C(=O)CO)C[C@@H]3O[C@H]1C[C@H](N)[C@H](O)[C@H](C)O1 [doxorubicin, reference compound]",contraction,"[2]; 1.25 μM doxorubicin, in the absence of myricetin",completely inhibited contraction
same,dysfunction in cardiomyocyte contraction,[5]; DOX (0.5 μM),"reduction in beating, duration, and peak height"
same,TOPOIIβ mRNA expression,TOPOIIβ mRNA expression,significantly repressed
same,expression of TOPOIIα,"TOPOIIα expression; DOX alone, over time",slowly repressed
same,decrease of ejection fraction (EF),C57BL/16 mice; [25],19%
same,decrease of fractional shortening (FS),C57BL/16 mice; [25],15%
same,mitochondrial toxicity (decrease in TMRM-positive cells) vs mock-treated,[17]; 1 μM of doxorubicin,increase in mitochondrial toxicity
same,average number of active electrodes,[18]; 1 μM doxorubicin in the absence of vitexin,about 2 active electrodes
same,decrease in the number of active electrodes,"[18]; 1 μM doxorubicin, in the absence of vitexin, 24 hours after drug treatment",~50%
same,"decrease in the number of active electrodes, relative to time zero","[18]; 1 μM doxorubicin, in the absence of vitexin, 30 hours after drug treatment",~95%
same,"reduction in the number of total cells, as compared to mock-treated control","[12]; human, 72 h, 1.25 μM",62.6%
same,CC50,MDA-MB-231 cells [19],0.53 µM
O=c1cc(-c2ccc(O)cc2)oc2c([C@@H]3O[C@H](CO)[C@@H](O)[C@H](O)[C@H]3O)c(O)cc(O)c12 [vitexin],"decrease in apoptosis, compared to doxorubicin without protective agent",[20],at least 60%
same,long term mitochondrial protection,"[17]; doxorubicin and vitexin, compared to doxorubicin or doxorubicin and dexrazoxane",improved long term mitochondrial protection
same,decrease in the number of active electrodes,"[18]; 1 μM doxorubicin and 11.6 μM vitexin, 24 hours",~50%
same,decrease in the number of active electrodes,"[18]; 1 μM doxorubicin and 37 μM vitexin, 24 hours",~25%
same,decrease in the number of active electrodes,"[18]; 1 μM doxorubicin and 116 μM vitexin, 24 hours",~0%
same,average number of active electrodes,[18]; 1 μM doxorubicin and 116 μM vitexin,about 10 active electrodes
same,difference in the percentage of cell death vs doxorubicin without protective agent,A549 cells,no significant difference
same,difference in beat period or field potential duration vs control samples,[21],no appreciable difference
same,decrease in the number of active electrodes relative to the mock-treated sample,[14],no observable decrease
same,difference in the percentage of cell death vs doxorubicin without protective agent,MDA-MB-231 cells [15],no significant difference
